The nature of test [1]: ADAM10 inhibitors, peptide cleavage, dose response, biochemical, QFRET (AID 743254).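 Further: ADAM10 enzyme with the DM2 quenched FRET peptide as substrate; EDANS fluorescence gain as the protease cuts the substrate; inhibitor potency against ADAM10 proteolytic activity.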
Test [2] concerns the target T1, Disintegrin and metalloproteinase domain-containing protein 17 (Homo sapiens, UniProt P78536). The test can be described thus: ADAM17 protease inhibitors, dose response, counter-screen for ADAM10 exosite inhibitor project, biochemical, quenched FRET substrate (AID 743253).
For another test, the target named is Major prion protein (Homo sapiens, UniProt P04156). It is filed as functional, cell-based.
The nature of test [3]: cells.
The target of test [4] is T1, Disintegrin and metalloproteinase domain-containing protein 17. The test can be described thus: exosite inhibitors of ADAM17, dose response, biochemical (AID 743260).
Test [5] in a line: ADAM10 protease inhibitors, dose response, selectivity assay for ADAM17 exosite inhibitor project, biochemical, FRET peptide substrate, recombinant human ADAM10 (AID 743259).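 Further: ADAM10 enzyme cleaving a FRET peptide substrate.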
Test [6] concerns the target T2, Oxysterols receptor LXR-beta (Homo sapiens, UniProt P55055).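 Further: agonist activity at LXR measured by a cell-based luminescence readout across a dose range, run as a counterscreen for daf-12 agonists; HEK293 cells with Gal4-LXR fusion and GAL4-driven luciferase reporter; potency for activation of Gal4-LXR reporter so compounds are agonists.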
T2 sequence (P55055 whole entry): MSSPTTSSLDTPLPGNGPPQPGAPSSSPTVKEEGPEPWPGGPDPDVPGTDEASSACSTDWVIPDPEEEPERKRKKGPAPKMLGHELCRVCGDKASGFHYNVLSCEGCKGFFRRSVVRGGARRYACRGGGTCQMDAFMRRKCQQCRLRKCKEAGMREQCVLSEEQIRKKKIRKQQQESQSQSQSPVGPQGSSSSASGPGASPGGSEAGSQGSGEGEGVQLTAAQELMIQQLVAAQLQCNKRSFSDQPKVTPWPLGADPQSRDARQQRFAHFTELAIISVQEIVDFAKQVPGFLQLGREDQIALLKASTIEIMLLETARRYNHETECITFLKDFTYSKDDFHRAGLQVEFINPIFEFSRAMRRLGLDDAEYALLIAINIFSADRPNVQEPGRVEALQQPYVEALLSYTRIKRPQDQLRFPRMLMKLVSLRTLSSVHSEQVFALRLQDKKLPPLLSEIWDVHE
It is filed as functional, cell-based.

The nature of test [7]: NIH-3T3 fibroblast cytotoxicity, dose response, cytotoxicity control, cell-based, fluorescence, Alamar Blue, secondary assay (AID 2327).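 Further: NIH-3T3 mouse fibroblasts cultured with fluconazole at 8 µg/mL.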 It is filed as functional. In general terms: Resazurin is reduced to fluorescent resorufin, in cell work by metabolically active cells.
The target in test [8] is Heat shock protein HSP 90-alpha (Homo sapiens, UniProt P07900). It is filed as functional, organism-based.
The nature of test [9]: C. albicans growth with fluconazole, confirmation, fluorescence, retest (AID 2467). It is filed as functional, cell-based.
Test [10] in a line: A549 cell cytotoxicity, dose response, cytotoxicity control, cherry-picks, 26 µM top dose (AID 1053119). It is filed as functional, cell-based.
A further test concerns the target Caspase-6 (Homo sapiens, UniProt P55212). The test is described as follows: human caspase-6 inhibitors, dose response, biochemical, VEID-R110 fluorescence, cherry-pick (AID 720632).
A further test has as its target Caspase-8 (Homo sapiens, UniProt Q14790). The test can be described thus: caspase-8 inhibition counter-screen, dose response, selectivity assay for caspase-6 inhibitor project, biochemical, Z-IETD-R110 fluorescence, cherry-picked samples (AID 743294). (In general: A counterscreen serves to expose hits that act by an unwanted route or on another target.)
The target in a further test is Caspase-7 (Homo sapiens, UniProt P55210). The test can be described thus: human caspase-7 inhibitors, dose response, selectivity assay for caspase-6 inhibitor project, biochemical, DEVD-R110 fluorescence, cherry-pick (AID 743295). It is filed as […].
A short description of test [11]: HepG2 cell cytotoxicity, dose response, cytotoxicity control, ATP luminescence, cherry-pick, activator set 2 (AID 1053143). It is filed as functional, cell-based.
The test system of test [12] is HEK293. The test can be described thus: NOD1 signaling inhibitors, primary screen, cell-based, luminescence, uHTS (AID 1578). It is filed as functional. Conditions: Homo sapiens.
In test [13] the test system is HEK293. The test can be described thus: NOD2 signaling inhibitors in MDP-stimulated cells, cell-based, uHTS, luminescence (AID 2001). It is filed as functional. Conditions: Homo sapiens.
Test [14] deals with HEK293. The test is described as follows: cells. It is filed as functional, cell-based. Conditions: Homo sapiens.
In test [15] the test system is HEK293. The test is described as follows: cells. The conditions noted are these: Homo sapiens.
Test [16] in a line: human group III sPLA2 inhibitors, dose response, biochemical, QFRET, IC50 (AID 743457).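 Further: green fluorescence rise as the enzyme cleaves BODIPY PC-A2 in liposomes; potency for inhibition of the enzyme.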
Test [17] concerns HEK293. The test can be described thus: cells. It is filed as functional, cell-based. The conditions noted are these: Homo sapiens. This is another data set of the same source.
In test [18] the test system is HEK293. The test is described as follows: cells. It is filed as functional, cell-based. Conditions: Homo sapiens. This is another data set of the same source.
Test [19] is described as follows: inhibitors of intracellular T. cruzi replication, confirmation, NIH3T3 host cells, beta-gal luminescence (AID 2044).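 Further: intracellular parasites grown in NIH/3T3 mouse fibroblasts as host cells; luminescent beta-galactosidase reporter signal from transgenic T. cruzi replicating inside host cells; inhibitors lower the luminescence signal.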 It is filed as functional, cell-based.
A short description of test [20]: cytotoxicity toward NIH3T3 fibroblasts, dose response, counter-screen, cell-based, ATP luminescence, mouse fibroblasts (AID 2010).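 Further: cells exposed to compound for about 90 hours before reading.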 It is filed as functional.
Test [21] in a line: Shn3 3'UTR reporter inhibitors, dose response, cell-based, Clone20 osteoblasts, firefly luciferase, cherry-picked (AID 624132).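 Further: firefly luciferase luminescence from reporter carrying the Shn3 3'UTR in osteoblasts.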 It is filed as functional.
Test [22] can be described thus: reduction of Shn3 3'UTR firefly luciferase signal, dose response, Schnurri-3 inhibitor project, cell-based, Clone20 osteoblasts, cherry-pick, set 2 (AID 720490).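 Further: actives lower the luminescence signal as inhibitors.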 It is filed as functional.
The nature of test [23]: HepG2 cell cytotoxicity, dose response, cytotoxicity control for Shn3 inhibitor project, CellTiter-Glo, cherry-picked (AID 624134). It is filed as functional, cell-based.
Test [24] can be described thus: control 3'UTR Renilla luciferase suppression, dose response, counter-screen for Shn3 inhibitor project, cell-based, Clone20-Shn3RL, cherry-picked (AID 624133). It is filed as functional.
Test [25] in a line: cells. The source holds these as a separate data set.

Calls of active or inactive are those of the source. A value given as a limit tells only on which side of the number the result lay.

For orientation: IC50 means the concentration that gives 50% inhibition. For `Cc1cc(C)cc(NS(=O)(=O)c2ccc(NC(=S)NC(=O)c3ccc(Br)o3)cc2)c1`, the values for the IC50 in test [1] and in [2] were 11.7 µM (inactive) and > 69.5 µM (inactive), respectively.

Take `CCOC(=O)CSc1nc(C(C)(C)C)nc2ccccc12`: the IC50 was 6.98 µM (active) on Major prion protein and > 138 µM (inactive) in “cells [3]”.

In the case of `COc1ccc(N(C)S(=O)(=O)c2cccc(C(=O)OC(C(=O)Nc3cc(C)cc(C)c3)c3ccccc3)c2)cc1` (centres undefined), the IC50 in test [4] and in [5] was > 69.5 µM (inactive) each time.

What is called EC50 is the concentration that produces a half-maximal response. Turning to `COCCNc1nc(-c2cc3ccccc3o2)cs1`, the EC50 in test [6] was > 67.5 µM (inactive).

What is called AC50 is the concentration at which the activity in the assay is half-maximal. For `Cc1ccc(O)c(-c2cc(-c3cccc(Br)c3)[nH]n2)c1`, the 50% effective concentration (EC50) in [7] was 16.3 µM (active); in [9] it was 4.48 µM (active). Besides, the concentration at half-maximal activity (AC50) was 3.01 µM (active) in test [8] and 37.3 µM (active) in [10].

Turning to `CCCCN(C(=O)c1cccc(-n2cccc2)c1)c1c(N)n(Cc2ccccc2)c(=O)[nH]c1=O`, the results for the AC50 on Caspase-6, at Caspase-8 and on Caspase-7 were 4.26 µM (active), 46.1 µM (active) and > 22 µM (inactive), respectively.

With `CCC(=O)Nc1cc2nn(-c3ccccc3)nc2cc1Cl`, the AC50 in test [11] is 5.02 µM (active).

For the compound `Fc1ccc(NC(S)=Nc2nccs2)cc1`, the EC50 is 5.3 µM (active) in the test with HEK293 [12], 2.79 µM (active) in test [19] and > 60 µM (inconclusive) in [20]. For the same compound, the IC50 in the test with HEK293 [13] was 6.34 µM (inactive); with HEK293 [14], > 20 µM (inactive); in the test with HEK293 [15], > 20 µM (inactive); in test [16] it was > 122 µM (inactive); in the test on HEK293 [17] it was > 20 µM (inactive); in the test on HEK293 [18] it was > 20 µM (inactive).

Consider `O=C(Nc1ccc(N2CCOCC2)cc1)c1ccc(Cl)c(S(=O)(=O)N2CCCC2)c1`, for which the AC50 is 2.17 µM (active) in test [21], 2.65 µM (active) in test [22], 69.4 µM (active) in test [23] and 22.3 µM (active) in test [24].

Regarding `CCCN1CCc2c(sc(NC(=O)C3CCN(S(=O)(=O)c4cccs4)CC3)c2C(N)=O)C1`, the concentration at half-maximal activity (AC50) in the test “cells [25]” was 5.17 µM (active).

Values taken from ChEMBL document CHEMBL1201862, “PubChem BioAssay data set” (2004).
